Some results are limits rather than exact numbers.

For assay [1], the system named is Mycobacterium tuberculosis H37Rv (ATCC 27294). Put plainly: Primary screen (dose response), Microplate Alamar Blue Assay (MABA), IC90. The format is cell-based. As to conditions: M. tuberculosis H37Rv, BACTEC 12B medium, Level-I assay. Here is the method: Primary Screen (Dose Response): Determination of a 90% Inhibitory Concentration (IC90). The initial screen is conducted against Mycobacterium tuberculosis H37Rv (ATCC 27294) in BACTEC 12B medium using the Microplate Alamar Blue Assay (MABA). Compounds are tested in ten 2-fold dilutions, typically from 100 μg/mL to 0.19 μg/mL. The IC90 is defined as the concentration effecting a reduction in fluorescence of 90% relative to controls. This value is determined from the dose-response curve using a curve-fitting program. Any IC90 value of ≦10 μg/mL is considered “Active” for antitubercular activity.
(Alamar Blue is a resazurin reagent that responds to reducing activity.)

A further assay has as its system VERO cell. The format is cell-based. The following applies: VERO cell CC50 (72 hours exposure) / M. tuberculosis H37Rv IC90.

On to “10,12-diheptanoyl-11-hydroxy-3-methyl-β-carboline [Compound I]”, for which the “IC90 (90% inhibitory concentration), antituberculosis activity” value in assay [1] stood at 0.948 µg/mL. For the same substance, the “Selectivity Index (SI) = CC50 divided by IC90” value with VERO cell is listed as greater than 105.48.

For the origin of these results see US8420660B2, “Antitubercular alkaloid” (priority 2011, dated 2013).
